# Experimental data published in patent US4110327A, “2,3 Diketo-piperazinocarbonylamino alkanoic acids and derivatives” (Toyama Chemical Co., Ltd., priority 1974, dated 1978).
# Tests used:
# [1] = Acute toxicity LD50 i.v. in mouse; conditions: in vivo, iv
# Excerpt: The present penicillins and cephalosporins have generally low toxicity.
# Escherichia coli NIHJ = experiment: MIC against standard strain, plate method; assay type: cell-based; conditions: unit assumed
# Summary of the method: (§1)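 MIC values come from the plate method on heart infusion agar at pH 7.4, with each plate receiving 10^4 cells from a 10^6 cells/ml suspension.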
# Klebsiella pneumoniae [2] = experiment: MIC against standard strain, plate method; assay type: cell-based; conditions: unit assumed
# Summary of the method: as §1
# Proteus vulgaris 3027 = experiment: MIC against standard strain, plate method; assay type: cell-based; conditions: Proteus vulgaris 3027, standard strain; unit assumed
# Summary of the method: as §1
# [3] = test system: Pseudomonas aeruginosa I.F.O.; experiment: MIC against standard strain, plate method; assay type: cell-based; conditions: unit assumed
# Summary of the method: as §1
# [4] = test system: Staphylococcus aureus 209p; experiment: MIC against standard strain, plate method; assay type: cell-based; conditions: unit assumed
# Summary of the method: as §1
# Staphylococcus aureus = experiment: MIC against clinical isolates; assay type: cell-based; conditions: unit assumed
# Escherichia coli = experiment: MIC against clinical isolates; assay type: cell-based; conditions: unit assumed
# Pseudomonas aeruginosa = experiment: MIC against clinical isolates; assay type: cell-based; conditions: unit assumed
# Klebsiella pneumoniae [5] = experiment: MIC against clinical isolates; assay type: cell-based; conditions: unit assumed
# Shigella flexneri = experiment: MIC against clinical isolates; assay type: cell-based; conditions: unit assumed
# Protocol: (§2) The minimum inhibitory concentrations (MIC) was determined by the plate method disclosed in "Chemotherapy" (Japan), Vol. 16, (1968), pages 98 - 99. The culture medium used was a Heart infusion agar (pH 7.4). The number of the cells per plate used in the inoculum as 10^4 (10^6 cells/ml).
# (§3) MIC was determined in the same manner as in the preceding paragraph (1).
# Shigella sonnei = experiment: MIC against clinical isolates; assay type: cell-based; conditions: unit assumed
# Protocol: as §2, §3
# Salmonella typhi = experiment: MIC against clinical isolates; assay type: cell-based; conditions: unit assumed
# Salmonella typhi-murium = experiment: MIC against clinical isolates; assay type: cell-based; conditions: unit assumed
# Proteus mirabilis = experiment: MIC against clinical isolates; assay type: cell-based; conditions: clinical isolate, unit assumed
# Proteus morganii = experiment: MIC against clinical isolates; assay type: cell-based; conditions: clinical isolate, unit assumed
# Proteus vulgaris = experiment: MIC against clinical isolates; assay type: cell-based; conditions: clinical isolate, unit assumed
# Proteus rettgeri = experiment: MIC against clinical isolates; assay type: cell-based; conditions: clinical isolate, unit assumed
# β-lactamase = experiment: Resistant activity against β-lactamase, iodometric assay; assay type: biochemical, Pseudomonas aeruginosa GN 238; conditions: relative to Potassium Penicillin G = 100
# Summary of the method: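 β-Lactamase taken as sonicated-cell supernatant from Pseudomonas aeruginosa GN 238 grown 6 h at 37° C, washed in 0.1 M phosphate pH 7.0. Compound stability to the enzyme measured iodometrically; values relative to potassium penicillin G set at 100.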
# [6] = clinical isolate GN (number not given; Table 5-3)
smiles,measurement,setting,value
CN1CCN(C(=O)N[C@@H](C(=O)N[C@@H]2C(=O)N3[C@@H]2SC(C)(C)[C@@H]3C(=O)O)c2ccccc2)C(=O)C1=O,LD50,[1],> 5000 mg/kg
CCN1CCN(C(=O)N[C@@H](C(=O)N[C@@H]2C(=O)N3[C@@H]2SC(C)(C)[C@@H]3C(=O)O)c2ccccc2)C(=O)C1=O,LD50,[1],> 5000 mg/kg
"CCCCN1CCN(C(=O)N[C@@H](C(=O)N[C@@H]2C(=O)N3[C@@H]2SC(C)(C)[C@@H]3C(=O)O)c2ccccc2)C(=O)C1=O (single isomer, unassigned) [compound 39]",MIC,Escherichia coli NIHJ,< 0.1 µg/mL
same,MIC,Klebsiella pneumoniae [2],1.57 µg/mL
same,MIC,Proteus vulgaris 3027,0.4 µg/mL
same,MIC,[3],6.25 µg/mL
same,MIC,[4],0.4 µg/mL
same,MIC,Staphylococcus aureus; clinical isolate F-1,6.25 µg/mL
same,MIC,Staphylococcus aureus; clinical isolate F-2,1.57 µg/mL
same,MIC,Staphylococcus aureus; clinical isolate F-3,1.57 µg/mL
same,MIC,Staphylococcus aureus; clinical isolate F-4,6.25 µg/mL
same,MIC,Staphylococcus aureus; clinical isolate F-5,> 200 µg/mL
same,MIC,Staphylococcus aureus; clinical isolate MS 8588,1.57 µg/mL
same,MIC,Staphylococcus aureus; clinical isolate MS 8596,1.57 µg/mL
same,MIC,Staphylococcus aureus; clinical isolate MS 8619,0.79 µg/mL
same,MIC,Staphylococcus aureus; clinical isolate MS 8684,3.13 µg/mL
same,MIC,Staphylococcus aureus; clinical isolate MS 8713,3.13 µg/mL
same,MIC,Escherichia coli; clinical isolate GN 3435,0.79 µg/mL
same,MIC,Escherichia coli; clinical isolate GN 3452,0.79 µg/mL
same,MIC,Escherichia coli; clinical isolate GN 3465,25 µg/mL
same,MIC,Escherichia coli; clinical isolate GN 3481,1.57 µg/mL
same,MIC,Escherichia coli; clinical isolate GN 3611,> 200 µg/mL
same,MIC,Escherichia coli; clinical isolate K-1,1.57 µg/mL
same,MIC,Escherichia coli; clinical isolate K-2,1.57 µg/mL
same,MIC,Escherichia coli; clinical isolate K-3,> 200 µg/mL
same,MIC,Escherichia coli; clinical isolate K-4,0.79 µg/mL
same,MIC,Pseudomonas aeruginosa; clinical isolate GN 82,3.13 µg/mL
same,MIC,Pseudomonas aeruginosa; clinical isolate GN 163,3.13 µg/mL
same,MIC,Pseudomonas aeruginosa; clinical isolate GN 221,3.13 µg/mL
same,MIC,Pseudomonas aeruginosa; clinical isolate GN 376,6.25 µg/mL
same,MIC,Pseudomonas aeruginosa; clinical isolate GN 383,6.25 µg/mL
same,MIC,Pseudomonas aeruginosa; clinical isolate GN 1035,12.5 µg/mL
same,MIC,Pseudomonas aeruginosa; clinical isolate GN 1091,3.13 µg/mL
same,MIC,Pseudomonas aeruginosa; clinical isolate GN 2565,12.5 µg/mL
same,MIC,Pseudomonas aeruginosa; clinical isolate GN 2987,3.13 µg/mL
same,MIC,Pseudomonas aeruginosa; [6],6.25 µg/mL
same,MIC,Pseudomonas aeruginosa; clinical isolate S-1,12.5 µg/mL
same,MIC,Pseudomonas aeruginosa; clinical isolate S-2,12.5 µg/mL
same,MIC,Pseudomonas aeruginosa; clinical isolate S-3,25 µg/mL
same,MIC,Pseudomonas aeruginosa; clinical isolate S-4,12.5 µg/mL
same,MIC,Klebsiella pneumoniae [5]; clinical isolate GN 917,1.57 µg/mL
same,MIC,Klebsiella pneumoniae [5]; clinical isolate GN 3850,3.13 µg/mL
same,MIC,Klebsiella pneumoniae [5]; clinical isolate GN 4081,25 µg/mL
same,MIC,Klebsiella pneumoniae [5]; clinical isolate GN 4117,25 µg/mL
same,MIC,Shigella flexneri; clinical isolate JS 11215,25 µg/mL
same,MIC,Shigella flexneri; clinical isolate JS 11839,0.79 µg/mL
same,MIC,Shigella sonnei; clinical isolate JS 11232,25 µg/mL
same,MIC,Shigella sonnei; clinical isolate JS 11755,1.57 µg/mL
same,MIC,Salmonella typhi; clinical isolate SL 819,0.79 µg/mL
same,MIC,Salmonella typhi; clinical isolate SL 2169,0.79 µg/mL
same,MIC,Salmonella typhi-murium; clinical isolate SL 858,0.79 µg/mL
same,MIC,Salmonella typhi-murium; clinical isolate SL 2136,100 µg/mL
same,MIC,Proteus mirabilis,< 0.4 µg/mL
same,MIC,Proteus morganii,< 0.4 µg/mL
same,MIC,Proteus vulgaris,< 0.4 µg/mL
same,MIC,Proteus rettgeri,6.25 µg/mL
same,Relative activity,β-lactamase,15%
"CCCCCCN1CCN(C(=O)N[C@@H](C(=O)N[C@@H]2C(=O)N3[C@@H]2SC(C)(C)[C@@H]3C(=O)O)c2ccccc2)C(=O)C1=O (single isomer, unassigned) [compound 46]",MIC,Escherichia coli NIHJ,< 0.1 µg/mL
same,MIC,Klebsiella pneumoniae [2],0.4 µg/mL
same,MIC,Proteus vulgaris 3027,0.4 µg/mL
same,MIC,[3],6.25 µg/mL
same,MIC,[4],0.2 µg/mL
same,MIC,Staphylococcus aureus; clinical isolate F-1,6.25 µg/mL
same,MIC,Staphylococcus aureus; clinical isolate F-3,0.79 µg/mL
same,MIC,Staphylococcus aureus; clinical isolate F-4,6.25 µg/mL
same,MIC,Staphylococcus aureus; clinical isolate F-5,> 200 µg/mL
same,MIC,Staphylococcus aureus; clinical isolate MS 8596,3.13 µg/mL
same,MIC,Staphylococcus aureus; clinical isolate MS 8619,< 0.4 µg/mL
same,MIC,Staphylococcus aureus; clinical isolate MS 8713,6.25 µg/mL
same,MIC,Escherichia coli; clinical isolate GN 3435,< 0.4 µg/mL
same,MIC,Escherichia coli; clinical isolate GN 3452,0.79 µg/mL
same,MIC,Escherichia coli; clinical isolate GN 3465,6.25 µg/mL
same,MIC,Escherichia coli; clinical isolate GN 3481,3.13 µg/mL
same,MIC,Escherichia coli; clinical isolate GN 3611,> 200 µg/mL
same,MIC,Escherichia coli; clinical isolate K-1,0.79 µg/mL
same,MIC,Escherichia coli; clinical isolate K-2,0.79 µg/mL
same,MIC,Escherichia coli; clinical isolate K-3,50 µg/mL
same,MIC,Escherichia coli; clinical isolate K-4,< 0.4 µg/mL
same,MIC,Pseudomonas aeruginosa; clinical isolate GN 82,6.25 µg/mL
same,MIC,Pseudomonas aeruginosa; clinical isolate GN 163,6.25 µg/mL
same,MIC,Pseudomonas aeruginosa; clinical isolate GN 221,12.5 µg/mL
same,MIC,Pseudomonas aeruginosa; clinical isolate GN 376,25 µg/mL
same,MIC,Pseudomonas aeruginosa; clinical isolate GN 383,25 µg/mL
same,MIC,Pseudomonas aeruginosa; clinical isolate GN 1035,50 µg/mL
same,MIC,Pseudomonas aeruginosa; clinical isolate GN 1091,12.5 µg/mL
same,MIC,Pseudomonas aeruginosa; clinical isolate GN 2565,12.5 µg/mL
same,MIC,Pseudomonas aeruginosa; clinical isolate GN 2987,6.25 µg/mL
same,MIC,Pseudomonas aeruginosa; [6],12.5 µg/mL
same,MIC,Pseudomonas aeruginosa; clinical isolate S-1,50 µg/mL
same,MIC,Pseudomonas aeruginosa; clinical isolate S-2,50 µg/mL
same,MIC,Pseudomonas aeruginosa; clinical isolate S-3,50 µg/mL
same,MIC,Pseudomonas aeruginosa; clinical isolate S-4,50 µg/mL
same,MIC,Klebsiella pneumoniae [5]; clinical isolate GN 917,0.79 µg/mL
same,MIC,Klebsiella pneumoniae [5]; clinical isolate GN 4081,12.5 µg/mL
same,MIC,Klebsiella pneumoniae [5]; clinical isolate GN 4117,12.5 µg/mL
same,MIC,Shigella flexneri; clinical isolate JS 11215,6.25 µg/mL
same,MIC,Shigella flexneri; clinical isolate JS 11839,0.79 µg/mL
same,MIC,Shigella sonnei; clinical isolate JS 11232,12.5 µg/mL
same,MIC,Shigella sonnei; clinical isolate JS 11755,0.79 µg/mL
same,MIC,Salmonella typhi; clinical isolate SL 819,1.57 µg/mL
same,MIC,Salmonella typhi; clinical isolate SL 2169,0.79 µg/mL
same,MIC,Salmonella typhi-murium; clinical isolate SL 858,< 0.4 µg/mL
same,MIC,Salmonella typhi-murium; clinical isolate SL 2136,50 µg/mL
same,MIC,Proteus mirabilis,< 0.4 µg/mL
same,MIC,Proteus morganii,< 0.4 µg/mL
same,MIC,Proteus vulgaris,< 0.4 µg/mL
same,MIC,Proteus rettgeri,3.13 µg/mL
same,Relative activity,β-lactamase,12%
